Test results taken from ChEMBL document CHEMBL1201862, “PubChem BioAssay data set” (2004).
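How tested: cells in 96-well plates exposed to compound for 48 hours at five concentrations. GI50 marks 50% less growth.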 Activity calls are given as the source filed them. No stated cut-off is given here; in the data, active = GI50 up to about 1.1 µM and inactive = higher.

Experiments:
Experiment in all cases: NCI anticancer screen, dose series, 48 h
ACHN = system: ACHN
UO-31 = system: UO-31
IGROV-1 = system: IGROV-1
SF-295 = system: SF-295
SN12C = system: SN12C
TK-10 = system: TK-10
SK-MEL-5 = system: SK-MEL-5
OVCAR-8 = system: OVCAR-8
LOX IMVI = system: LOX IMVI
NCI-H460 = system: NCI-H460
SF-268 = system: SF-268
OVCAR-3 = system: OVCAR-3
UACC-257 = system: UACC-257
NCI-H226 = system: NCI-H226
HCT-15 = system: HCT-15
LXFL 529 = system: LXFL 529
OVCAR-4 = system: OVCAR-4
HL-60 = system: HL-60
DMS-114 = system: DMS-114
A549 = system: A549
K562 = system: K562
RPMI-8226 = system: RPMI-8226
EKVX = system: EKVX
HCT-116 = system: HCT-116
M14 = system: M14
HT-29 = system: HT-29
CCRF-CEM = system: CCRF-CEM
KM12 = system: KM12
A498 = system: A498
UACC-62 = system: UACC-62
HOP-92 = system: HOP-92
U-251 = system: U-251
SF-539 = system: SF-539
NCI-H522 = system: NCI-H522
XF498 = system: XF498
SW-620 = system: SW-620
DMS-273 = system: DMS-273
HCC 2998 = system: HCC 2998
SK-OV-3 = system: SK-OV-3
KM-20L2 = system: KM-20L2
DLD-1 = system: DLD-1
COLO 205 = system: COLO 205
SNB-75 = system: SNB-75
SK-MEL-28 = system: SK-MEL-28
RXF 393 = system: RXF 393
M19-MEL = system: M19-MEL
HOP-62 = system: HOP-62
SNB-19 = system: SNB-19
CAKI-1 = system: CAKI-1
SR = system: SR
OVCAR-5 = system: OVCAR-5
SNB-78 = system: SNB-78
786-0 = system: 786-0
NCI-H23 = system: NCI-H23
Malme-3M = system: Malme-3M
SK-MEL-2 = system: SK-MEL-2
HOP-18 = system: HOP-18
MOLT-4 = system: MOLT-4

Measured: GI50

CCOC(=O)C1N(S(=O)(=O)c2ccc(C)cc2)CCC12c1ccccc1NC2c1ccc(OC)c(OC)c1 (stereo not given)
inactive: ACHN > 100 µM | UO-31 > 100 µM | IGROV-1 14.6 µM | SF-295 > 100 µM | SN12C > 100 µM | TK-10 > 100 µM | SK-MEL-5 > 100 µM | OVCAR-8 > 100 µM | LOX IMVI > 100 µM | NCI-H460 > 100 µM | SF-268 > 100 µM | OVCAR-3 > 100 µM | UACC-257 > 100 µM | NCI-H226 > 100 µM | LXFL 529 > 100 µM | OVCAR-4 > 100 µM | HL-60 27.7 µM | DMS-114 > 100 µM | A549 > 100 µM | K562 34.2 µM | RPMI-8226 13.9 µM | EKVX > 100 µM | HCT-116 60.7 µM | M14 > 100 µM | HT-29 > 100 µM | CCRF-CEM 80.5 µM | KM12 > 100 µM | A498 > 100 µM | UACC-62 > 100 µM | HOP-92 10.7 µM | U-251 > 100 µM | SF-539 > 100 µM | NCI-H522 > 100 µM | XF498 79.8 µM | SW-620 27.4 µM | DMS-273 > 100 µM | HCC 2998 > 100 µM | SK-OV-3 > 100 µM | KM-20L2 > 100 µM | DLD-1 > 100 µM | COLO 205 > 100 µM | SNB-75 > 100 µM | SK-MEL-28 > 100 µM | RXF 393 > 100 µM | M19-MEL > 100 µM | HOP-62 > 100 µM | SNB-19 > 100 µM | CAKI-1 > 100 µM | SR 22 µM | OVCAR-5 > 100 µM | SNB-78 > 100 µM | 786-0 > 100 µM | NCI-H23 > 100 µM | Malme-3M > 100 µM
> 100 µM: HCT-15

NC1CCCCC1.O=C(O)C(CP(=O)(O)O)=C(Cl)Cl
> 100 µM: HCT-15
inactive: ACHN > 100 µM | UO-31 > 100 µM | IGROV-1 > 100 µM | SF-295 > 100 µM | SN12C > 100 µM | TK-10 > 100 µM | OVCAR-8 > 100 µM | LOX IMVI > 100 µM | NCI-H460 > 100 µM | SF-268 > 100 µM | OVCAR-3 > 100 µM | UACC-257 > 100 µM | NCI-H226 > 100 µM | LXFL 529 > 100 µM | HL-60 > 100 µM | A549 > 100 µM | RPMI-8226 > 100 µM | EKVX > 100 µM | HCT-116 > 100 µM | HT-29 > 100 µM | SK-MEL-2 > 100 µM | HOP-18 > 100 µM | CCRF-CEM > 100 µM | UACC-62 > 100 µM | HOP-92 > 100 µM | U-251 > 100 µM | SF-539 > 100 µM | MOLT-4 > 100 µM | XF498 > 100 µM | SW-620 > 100 µM | DMS-273 > 100 µM | HCC 2998 > 100 µM | SK-OV-3 > 100 µM | KM-20L2 > 100 µM | COLO 205 > 100 µM | SNB-75 > 100 µM | SK-MEL-28 > 100 µM | RXF 393 > 100 µM | M19-MEL > 100 µM | HOP-62 > 100 µM | SNB-19 > 100 µM | SR > 100 µM | OVCAR-5 > 100 µM | SNB-78 > 100 µM | 786-0 > 100 µM | NCI-H23 > 100 µM | Malme-3M > 100 µM

Cc1ccccc1Cn1nc2ccccc2cc1=O
> 100 µM: HCT-15
inactive: ACHN > 100 µM | UO-31 > 100 µM | IGROV-1 > 100 µM | SF-295 > 100 µM | SN12C > 100 µM | TK-10 > 100 µM | SK-MEL-5 > 100 µM | OVCAR-8 > 100 µM | LOX IMVI > 100 µM | NCI-H460 > 100 µM | SF-268 > 100 µM | OVCAR-3 > 100 µM | UACC-257 > 100 µM | NCI-H226 > 100 µM | OVCAR-4 > 100 µM | DMS-114 > 100 µM | A549 > 100 µM | K562 > 100 µM | RPMI-8226 > 100 µM | EKVX > 100 µM | HCT-116 > 100 µM | M14 > 100 µM | HT-29 > 100 µM | SK-MEL-2 > 100 µM | HOP-18 > 100 µM | CCRF-CEM > 100 µM | KM12 > 100 µM | A498 > 100 µM | UACC-62 > 100 µM | HOP-92 > 100 µM | U-251 > 100 µM | SF-539 > 100 µM | XF498 > 100 µM | SW-620 > 100 µM | DMS-273 > 100 µM | HCC 2998 > 100 µM | SK-OV-3 > 100 µM | KM-20L2 > 100 µM | DLD-1 > 100 µM | COLO 205 > 100 µM | SNB-75 22.1 µM | SK-MEL-28 > 100 µM | M19-MEL > 100 µM | HOP-62 > 100 µM | SNB-19 > 100 µM | CAKI-1 > 100 µM | OVCAR-5 > 100 µM | SNB-78 > 100 µM | 786-0 > 100 µM | NCI-H23 > 100 µM | Malme-3M > 100 µM
